The numbers were not newly measured in patent publication US20090048319A1, “Method of Using a Micronutrient as Safener for a Triazole for Controlling Harmful Fungi” (priority 2006, published 2009), which cites them from elsewhere.

This data set deals with wheat. The conditions noted are these: in vivo.

`CC1(C)CC/C(=C\c2ccc(Cl)cc2)C1(O)Cn1cncn1` (stereo not shown) [triticonazole, (5E)-5-[(4-chlorophenyl)methylene]-2,2-dimethyl-1-(1H-1,2,4-triazol-1-ylmethyl)cyclopentanol]: the “negative effect on plant growth” value is “strongly reduced longitudinal growth”.
